The source of these data is ChEMBL document CHEMBL2331134, “Design and synthesis of 3,5-diaryl-4,5-dihydro-1H-pyrazoles as new tyrosinase inhibitors” (Bioorg Med Chem, 2013).

For assay [1], the target named is T1, Tyrosinase (Agaricus bisporus, UniProt O42713).
T1 sequence (O42713 whole entry): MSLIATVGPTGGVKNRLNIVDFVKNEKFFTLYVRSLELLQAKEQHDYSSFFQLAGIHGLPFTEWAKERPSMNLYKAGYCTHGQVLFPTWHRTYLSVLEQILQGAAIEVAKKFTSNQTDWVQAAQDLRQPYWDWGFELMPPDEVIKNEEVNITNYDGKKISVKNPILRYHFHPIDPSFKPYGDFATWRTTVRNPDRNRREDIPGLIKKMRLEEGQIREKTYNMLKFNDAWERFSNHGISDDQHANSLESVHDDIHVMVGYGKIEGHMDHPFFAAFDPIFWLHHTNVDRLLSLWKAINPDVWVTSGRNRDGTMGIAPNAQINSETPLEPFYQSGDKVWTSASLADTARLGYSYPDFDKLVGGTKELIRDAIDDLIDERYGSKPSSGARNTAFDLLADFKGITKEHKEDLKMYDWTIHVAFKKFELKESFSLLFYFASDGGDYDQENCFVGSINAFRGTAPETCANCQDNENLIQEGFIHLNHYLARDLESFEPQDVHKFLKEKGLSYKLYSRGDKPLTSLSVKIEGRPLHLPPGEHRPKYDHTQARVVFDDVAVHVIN
Description: Inhibition of mushroom tyrosinase assessed as reduction in diphenolase activity using L-DOPA substrate pre-incubated for 20 mins at 30 degC

Assay [2] concerns the target T2, Tyrosinase (Agaricus bisporus) (UniProt O42713).
T2 sequence (whole entry): T1 sequence (O42713 whole entry)
Description: Competitive inhibition of mushroom tyrosinase assessed as reduction in L-DOPA oxidation by Lineweaver-Burk plot.

Calls of active or inactive are those of the source. No cut-off for these calls is given here.

Usually IC50 stands for the concentration at which inhibition is half-maximal. Lower therefore signals higher potency. In assay [1], `COc1cc(C2CC(c3ccc(O)cc3O)=NN2)ccc1O` (stereo unspecified) registered an IC50 of 2.43 µM.

`CC(=O)N1N=C(c2cc(O)cc(O)c2)CC1c1ccc(O)cc1` (stereo unspecified) displayed an IC50 in assay [1] of 161 µM. Turning to `COc1cc(C2CC(c3ccc(O)cc3)=NN2C(C)=O)ccc1O` (stereo unspecified), the IC50 in assay [1] was above 200 µM.

With `O=C(OCc1ccc(O)cc1)c1ccc(O)cc1O`, the inhibition result in assay [2] was “Active”. In turn, `COc1cc(OC)cc(-c2nc(-c3ccc(O)cc3O)cs2)c1` displayed an IC50 in assay [1] of 2 µM. As for `CC(=O)N1N=C(c2ccc(O)cc2)CC1c1cccc(O)c1` (stereo unspecified), in assay [1], the midpoint of inhibition, the IC50, lay at 147 µM. The same measure, in the same setting: the result for `CC(=O)N1N=C(c2cc(O)cc(O)c2)CC1c1cccc(O)c1` (stereo unspecified) reads above 200 µM. Still for that read-out and setting: the result for `CC(=O)N1N=C(c2ccccc2O)CC1c1ccc(O)cc1` (stereo unspecified) reads 13.1 µM. In the case of `O=C1CC(c2ccc(O)cc2O)Oc2cc(O)cc(O)c21` (stereo unspecified), the inhibition result in assay [2] is “Active”. In turn, `COc1cc(O)ccc1C1CC(c2ccccc2O)=NN1C(C)=O` (stereo unspecified) displayed an IC50 in assay [1] above 200 µM. On the same count and under the same terms, in the case of `CC(=O)N1N=C(c2ccc(O)cc2)CC1c1ccc(O)c(O)c1` (stereo unspecified) it was 1.07 µM; in that of `CC(=O)N1N=C(c2ccccc2O)CC1c1ccc(O)c(O)c1` (stereo unspecified), above 200 µM. As to `CC(=O)N1N=C(c2ccc(O)cc2O)CC1c1ccc(O)c(O)c1` (stereo unspecified), the inhibition entry in assay [2] is “Active”. Besides, half-maximal inhibition in assay [1] (IC50) required 2.74 µM. Taken in the same sequence, the figures for `CC(=O)N1N=C(c2ccc(O)cc2O)CC1c1ccc(O)cc1` (stereo unspecified) were “Active” and 1.69 µM. Taken in the same sequence, the figures for `Oc1cccc(C2CC(c3ccc(O)cc3O)=NN2)c1` (stereo unspecified) were “Active” and 0.837 µM.

Regarding `O=C(/C=C/c1ccc(O)cc1O)c1ccc(O)cc1O`, the inhibition entry in assay [2] is “Active”. In the case of `Oc1ccc(C2CC(c3ccc(O)cc3O)=NN2)cc1` (stereo unspecified), the inhibition entry in assay [2] is “Active”. 0.882 µM corresponded to half-maximal inhibition in assay [1] (IC50). As to `CC(=O)N1N=C(c2ccccc2O)CC1c1cccc(O)c1` (stereo unspecified), the IC50 in assay [1] was above 200 µM. Consider `COc1cc(C2CC(c3ccc(O)cc3O)=NN2C(C)=O)ccc1O` (stereo unspecified), for which, in assay [2], the inhibition result was “Active”. The compound further returned an IC50 in assay [1] of 0.301 µM. Consider `COc1cc(C2CC(c3ccccc3O)=NN2C(C)=O)ccc1O` (stereo unspecified), for which, in assay [1], 13.4 µM corresponded to half-maximal inhibition (IC50). In other words, the double-digit micromolar range. On the same count and under the same terms, in the case of `O=c1cc(-c2ccc(O)cc2O)oc2cc(O)cc(O)c12` [NORARTOCARPETIN] it was above 200 µM.

Take `CC(=O)N1N=C(c2ccc(O)cc2O)CC1c1cccc(O)c1` (stereo unspecified): the inhibition entry in assay [2] is “Active”. In assay [1], the IC50 was found to be 0.863 µM. In turn, `CC(=O)N1N=C(c2ccc(O)cc2O)CC1c1ccc(O)c([N+](=O)[O-])c1` (stereo unspecified) yielded an IC50 in assay [1] above 200 µM. As to `CC(=O)N1N=C(c2ccc(O)cc2)CC1c1ccc(O)cc1` (stereo unspecified), inhibition in assay [1] was half-maximal at 3.51 µM (IC50). In turn, `Oc1ccc(C2CC(c3ccccc3O)=NN2)cc1` (stereo unspecified) showed an IC50 in assay [1] of 11.8 µM.
